Assay [1] relates to Lactiplantibacillus plantarum 1,5-anhydroglucitol-6-phosphate isomerase LpYbiW (Uniprot A0A807DR53), SEQ ID NO: 2. Put plainly: Michaelis-Menten kinetics of LpYbiW, coupled with LpFsaA and EcGldA, NADH consumption at A340nm. Format: biochemical. The settings on record: substrate 1,5-anhydroglucitol-6-phosphate at varying concentrations; 100 nM activated LpYbiW, 20 mM Tris/HCl pH 7.5, 100 mM KCl, 0.4 mM NADH, glove box. How it is done:
The Michaelis-Menten kinetic parameters of LpYbiW were determined by coupling with LpFsaA and EcGldA. The reaction rate of LpYbiW was monitored by measuring NADH consumption at A340nm. The absorbance change of the reaction system at 340 nm was measured every 5 seconds using the cuvette mode of an ultra-micro UV-visible spectrophotometer (Nanophotometer) in a glove box (1 cm light path). These reaction systems consisted of 100 nM activated LpYbiW, 20 mM Tris/HCl, (pH 7.5), 100 mM KCl, 1,5-anhydroglucitol-6-phosphate with varying concentrations, 5 µM LpFsaA, 5 µM EcGldA, and 0.4 mM NADH.

Assay [2] concerns the target T1, Escherichia coli strain K12 1,5-anhydromannitol-6-phosphate isomerase EcPflD (Uniprot P32674), SEQ ID NO: 98 (Escherichia coli, UniProt P32674).
T1 sequence (P32674 1-765): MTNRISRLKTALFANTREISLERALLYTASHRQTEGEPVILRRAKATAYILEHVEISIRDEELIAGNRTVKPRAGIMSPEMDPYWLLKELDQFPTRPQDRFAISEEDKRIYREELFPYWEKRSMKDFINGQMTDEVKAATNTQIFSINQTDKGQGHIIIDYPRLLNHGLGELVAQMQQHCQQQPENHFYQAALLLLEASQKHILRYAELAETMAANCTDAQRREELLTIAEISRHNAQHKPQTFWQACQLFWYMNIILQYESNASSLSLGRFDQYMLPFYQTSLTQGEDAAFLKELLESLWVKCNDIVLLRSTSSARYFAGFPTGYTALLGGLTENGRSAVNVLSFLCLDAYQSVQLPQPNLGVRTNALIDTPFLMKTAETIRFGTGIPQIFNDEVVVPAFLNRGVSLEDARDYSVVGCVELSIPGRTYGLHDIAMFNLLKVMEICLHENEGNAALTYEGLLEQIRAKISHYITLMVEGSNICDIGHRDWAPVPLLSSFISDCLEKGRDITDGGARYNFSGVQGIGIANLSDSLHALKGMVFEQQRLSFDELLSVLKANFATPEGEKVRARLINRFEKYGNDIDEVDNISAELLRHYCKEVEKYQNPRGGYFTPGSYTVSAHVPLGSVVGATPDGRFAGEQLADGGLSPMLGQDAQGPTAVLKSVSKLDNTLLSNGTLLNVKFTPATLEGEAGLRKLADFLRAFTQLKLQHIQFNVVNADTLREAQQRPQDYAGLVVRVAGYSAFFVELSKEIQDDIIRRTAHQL
Description: Michaelis-Menten kinetics of EcPflD, coupled with EcFsaB and EcGldA, decrease in A340nm. Particulars: substrate 1,5-AM-6P at various concentrations; 40 nM activated EcPflD, 20 mM Tris/HCl pH 7.5, 100 mM KCl, 0.4 mM NADH, glove box. Format: biochemical. Here is the method:
The reaction system containing 20 mM Tris/HCl, (pH 7.5), 100 mM KCl, 40 nM activated EcPflD and 1,5-AM-6P with various substrate concentrations, 2 µM EcFsaB, 2 µM EcGldA, and 0.4 mM NADH was measured using a cuvette mode of an ultra-micro UV-Vis spectrophotometer (Hangzhou Miu Instruments Co., Ltd.) in a 1 cm Eppendorf cuvette inside a glove box. The decrease in A340nm was monitored at 5-second intervals.

Data on two compounds can be found in EP4818324A1, “BIOLOGICAL METHOD FOR PREPARING 1,2-PROPANEDIOL” (Tianjin University, priority 2023, dated 2025).

One may read the Km as the concentration of substrate that gives half-maximal velocity.

Regarding `O=P(O)(O)OC[C@H]1OC[C@H](O)[C@@H](O)[C@@H]1O` [1,5-AG-6P, 1,5-anhydroglucitol-6-phosphate], in assay [1], the Km turned out to be 36.5 ± 6.66 mM and the kcat turned out to be 43.38 ± 2.96 s^-1/LpYbiW.

Take `O=P(O)(O)OC[C@H]1OC[C@@H](O)[C@@H](O)[C@@H]1O` [1,5-AM-6P, 1,5-anhydromannitol-6-phosphate]: in assay [2], the Km was 1.33 ± 0.12 mM and the kcat turned out to be 33.47 ± 0.79 s^-1/EcPflD.
